Source: patent publication US12637465B2, “Pharmaceutically acceptable salts of sepiapterin” (PTC Therapeutics MP, Inc., priority 2018, dated 2026)

Legend:
Format in all cases: physicochemical
[1] = Form change/disproportionation of residual solids by XRPD after suspension in water or Medisca Oral Mix; details: for Form change (residual solids, XRPD): RT, listed as phosphate salt and/or co-crystal
Protocol: The kinetic solubility was evaluated for nicotinate, phosphate, L-tartrate, and fumarate salts and/or co-crystals of sepiapterin in water and […] Oral Mix. X-ray powder diffraction (XRPD) was performed for the residual solids to identify form change/disproportionation. Solids were suspended into the media with target conc. of 7 mg/mL (calculated by freebase). […] Oral Mix after 1 hour. […] Oral Mix.

[2] = Solid form stability study of salts and/or co-crystals at 25° C./60% RH and 40° C./75% RH
Protocol: The stability of the prepared salts and/or co-crystals was analyzed after 1 and 2 weeks at 25° C. and 60% relative humidity and 40° C. and 75% relative humidity. […] None of the phosphate, tartrate, or nicotinate salts and/or co-crystals underwent a form change during the stability testing, and each of them retained greater than 97% purity over the two weeks of the study. In fact, both the tartrate and nicotinate both retained greater than 99% purity.

[3] = Kinetic solubility in water and Medisca Oral Mix (HPLC solubility, purity and pH of supernatant); details: RT; for Solubility: calculated using freebase, target conc. 7 mg/mL; for Solubility / Purity (area %) of supernatant / pH: listed as phosphate salt and/or co-crystal; for Purity (area %) of supernatant: for reference only
Protocol: The kinetic solubility was evaluated for nicotinate, phosphate, L-tartrate, and fumarate salts and/or co-crystals of sepiapterin in water and […] Oral Mix. X-ray powder diffraction (XRPD) was performed for the residual solids to identify form change/disproportionation. Solids were suspended into the media with target conc. of 7 mg/mL (calculated by freebase).

## C[C@H](O)C(=O)C1=Nc2c(nc(N)[nH]c2=O)NC1 [Phosphate, sepiapterin]
[1]; Medisca Oral Mix, 1 hr
  Form change (residual solids, XRPD): Yes**
[1]; Medisca Oral Mix, 4 hr
  Form change (residual solids, XRPD): Yes**
[1]; Medisca Oral Mix, 24 hr
  Form change (residual solids, XRPD): Yes**
[1]; Medisca Oral Mix, after 1 hour
  Form of the residual solids in Medisca Oral Mix: converted to freebase
[1]; Water, 1 hr
  Form change (residual solids, XRPD): Yes
[1]; Water, 4 hr
  Form change (residual solids, XRPD): Yes
[1]; Water, 24 hr
  Form change (residual solids, XRPD): Yes
[1]; water, after 1 hour
  Form of the residual solids in water: converted to freebase
[2]
  Stability compared with the other salts and/or co-crystals tested: noticeably more stable than the others
[2]; 1 and 2 weeks, 25° C./60% RH and 40° C./75% RH
  Underwent a form change during the stability testing: None
[2]; 1 week, 25° C./60% RH
  Form change: No
  Purity (Area %): 95.35 Area %
  Purity vs. initial (%): 98.6%
[2]; 1 week, 40° C./75% RH
  Form change: No
  Purity (Area %): 95.91 Area %
  Purity vs. initial (%): 99.1%
[2]; 2 weeks, 25° C./60% RH
  Form change: No
  Purity (Area %): 95.87 Area %
  Purity vs. initial (%): 99.1%
[2]; 2 weeks, 40° C./75% RH
  Form change: No
  Purity (Area %): 94.50 Area %
  Purity vs. initial (%): 97.7%
[2]; Initial
  Purity (Area %): 96.75 Area %
[3]; Medisca Oral Mix, 1 hr
  Observation: Turbid
  Solubility: 2500 µg/mL
  Purity (area %) of supernatant: 99.23 area %
  pH: 3.1
[3]; Medisca Oral Mix, 4 hr
  Observation: Turbid
  Solubility: 3200 µg/mL
  Purity (area %) of supernatant: 98.95 area %
  pH: 3.1
[3]; Medisca Oral Mix, 24 hr
  Observation: Turbid
  Purity (area %) of supernatant: 87.63 area %
  pH: 3.1
[3]; Water, 1 hr
  Observation: Turbid
  Purity (area %) of supernatant: 89.92 area %
  pH: 2.1
[3]; Water, 4 hr
  Observation: Turbid
  Purity (area %) of supernatant: 89.52 area %
  pH: 2.1
[3]; Water, 24 hr
  Observation: Turbid
  Purity (area %) of supernatant: 82.64 area %
  pH: 2.1
